“Also recorded” adds a separate entry of the source. Like-named read-outs stand apart in the source and are kept apart here.
Legend:
[1] = test system: L1210 murine leukemia cells; assay: cytotoxicity in L1210 murine leukemia cells; assay type: cell-based
[2] = test system: L1210 murine leukemia cells; assay: mitotic index (accumulation of cells arrested in mitosis); assay type: cell-based; conditions: at cytotoxic concentrations
tubulin [3] = assay: binding of radiolabeled vinblastine to tubulin
human tumor cell lines = assay: cells; assay type: cell-based
HOP-92 = assay: NCI human tumor in vitro primary screen; assay type: cell-based; conditions: non-small cell lung cancer
Text: (§1) Only two hundred years ago, many diseases ravaged humankind. Many of these diseases now have been controlled or eradicated. In the development of the means to treat or control these diseases, work with the appropriate common experimental animals was of critical importance. With the various types of cancers, and with the HIV virus, such work is presently ongoing. The research for the treatment of various types of cancer is coordinated in the United States by the National Cancer Institute (NCI). NCI, as a government entity, has been charged with assisting anti-cancer research. To establish whether a substance has anti cancer activity, NCI has established a variety of protocols, one of which involves testing the candidate substance against a cell line panel containing 60 human tumor cell lines. This protocol has been verified and is generally accepted throughout the scientific community. This protocol and the established statistical means of evaluating the results obtained therefrom have been fully described in the literature. See Principles & Practice of Oncology PPO Updates, Volume 3, Number 10, Oct. 1989, by Michael R. Boyd, M.D., Ph.D., for an indepth description of the test protocol. The statistical analysis is explained in "Display and Analysis of Patterns of Differential Activity of Drugs Against Human Tumor Cell Lines: Development of Means Graph and COMPARE Algorithm" Journal of the National Cancer Institute Reports Vol. 81, No. 14, Pg. 1088, Jul. 14, 1989, by K. D. Paull et al. Both of these references are incorporated herein by this reference thereto.
(§2) Biological Testing; Data Display and Analysis; Screening Data Summary. Freshly isolated halistatin 2 was tested in the NCI's human tumor, disease-oriented in vitro primary screen, and data calculations performed. Table 3 is a composite prepared from mean graphs constructed from the averaged GI50 values from quadruplicate screenings of Halistatin 2.

HCT-15 = assay: NCI human tumor in vitro primary screen; assay type: cell-based; conditions: colon cancer
Text: as §1, §2

ACHN = assay: NCI human tumor in vitro primary screen; assay type: cell-based; conditions: renal cancer
Text: as §1, §2

CAKI-1 = assay: NCI human tumor in vitro primary screen; assay type: cell-based
Text: as §1, §2

HCT-116 = assay: NCI human tumor in vitro primary screen; assay type: cell-based; conditions: colon cancer
Text: as §1, §2

SR = assay: NCI human tumor in vitro primary screen; assay type: cell-based; conditions: leukemia, read-out: averaged negative log10 GI50 (converted)
Text: as §1, §2

HT29 = assay: NCI human tumor in vitro primary screen; assay type: cell-based; conditions: HT-29, colon cancer
Text: as §1, §2

HOP-62 = assay: NCI human tumor in vitro primary screen; assay type: cell-based; conditions: non-small cell lung cancer
Text: as §1, §2

LOX IMVI = assay: NCI human tumor in vitro primary screen; assay type: cell-based; conditions: melanoma
Text: as §1, §2

XF 498 = assay: NCI human tumor in vitro primary screen; assay type: cell-based
Text: as §1, §2

M19-MEL = assay: NCI human tumor in vitro primary screen; assay type: cell-based; conditions: melanoma
Text: as §1, §2

SNB-19 = assay: NCI human tumor in vitro primary screen; assay type: cell-based; conditions: CNS cancer
Text: as §1, §2

MOLT-4 = assay: NCI human tumor in vitro primary screen; assay type: cell-based; conditions: leukemia
Text: as §1, §2

UACC-257 = assay: NCI human tumor in vitro primary screen; assay type: cell-based; conditions: melanoma
Text: as §1, §2

SK-MEL-2 = assay: NCI human tumor in vitro primary screen; assay type: cell-based; conditions: melanoma
Text: as §1, §2

[4] = test system: P388 lymphocytic leukemia; assay: P388 lymphocytic leukemia in vivo (NCI protocol); conditions: 40 μg/kg host body weight, BDF mice
Protocol: When BDF, mice were treated with 40 μg/kg host body weight of halistatin 2.

NCI-H322M = assay: cells; assay type: cell-based; conditions: Homo sapiens
tubulin [5] = assay: radiolabeled GTP binding to tubulin / nucleotide exchange on tubulin
Text: (§3) For radiolabeled GTP binding to tubulin, the same drug concentrations inhibited the reaction by 17% and 51% with halistatin 2.

tubulin [6] = assay: glutamate-induced polymerization of purified tubulin; assay type: biochemical
Protocol: Halistatin 2 was evaluated to determine if it was an antimitotic agent which interfered with the polymerization of purified tubulin and microtubule assembly dependent on microtubule-associated proteins isolated.
as §3

[7] = read-out: Log10 GI50 (converted)
[8] = read-out: Log10 TGI (converted)
[9] = read-out: averaged negative log10 GI50 (converted)

C=C1CC2CCC34CC5OC6C(O3)C3OC(CCC3OC6(O)C5O4)CC(=O)OC3C(CC4OC(CCC1O2)CC(C)C4=C)OC1CC2OC4(CC2OC1C3C)CC1OC2(CC(C)C3OC5CC(C(O)CO)OC5CC3O2)CC(C)C1O4 (stereo not drawn) [halistatin 2]
cytotoxicity (in words) [1]: significant cytotoxicity | IC50 ([1]; Mus musculus): 0.4 nM | mitotic arrest / rise in mitotic index (in words) [2]: caused a significant rise in the mitotic index; also recorded: caused the accumulation of cells arrested in mitosis | mitotic index [2]: ≤ 20% | inhibition of radiolabeled vinblastine binding to tubulin (in words) (tubulin [3]): inhibited the binding of radiolabeled vinblastine and GTP to tubulin | type of inhibition of vinblastine binding (in words) (tubulin [3]): noncompetitive inhibitor | inhibition of radiolabeled vinblastine binding to tubulin (tubulin [3]; 5 μM): 51% | inhibition of radiolabeled vinblastine binding to tubulin (tubulin [3]; 10 μM): 75% | potency (human tumor cell lines): especially noteworthy | screening profile (human tumor cell lines): characteristic of a general mechanistic class of tubulin-interactive antimitotics | GI50 (human tumor cell lines; Homo sapiens): ~0.7 nM | GI50 (HOP-92; [7]): 1.2 nM | IC (TGI) (HOP-92; [8]): 10 nM | GI50 (HOP-92; [9]): 1.2 nM | GI50 (HCT-15; [7]): 5.5 nM | IC (TGI) (HCT-15; [8]): 10 nM | GI50 (HCT-15; [9]): 5.5 nM | GI50 (ACHN; [7]): 4.37 nM | IC (TGI) (ACHN; [8]): 10 nM | GI50 (ACHN; [9]): 4.37 nM | GI50 (CAKI-1; CAKl-1, renal cancer, read-out: Log10 GI50 (converted)): 1.29 nM | IC (TGI) (CAKI-1; CAKl-1, renal cancer, read-out: Log10 TGI (converted)): 10 nM | GI50 (CAKI-1; renal cancer, read-out: averaged negative log10 GI50 (converted)): 1.29 nM | GI50 (HCT-116; [7]): 0.55 nM | IC (TGI) (HCT-116; [8]): 10 nM | GI50 (HCT-116; [9]): 0.55 nM | GI50 (SR): 0.214 nM | GI50 (HT29; [7]): 0.457 nM | IC (TGI) (HT29; [8]): 3.72 nM | GI50 (HT29; [9]): 0.457 nM | GI50 (HOP-62; [7]): 0.692 nM | IC (TGI) (HOP-62; [8]): 7.59 nM | GI50 (HOP-62; [9]): 0.692 nM | GI50 (LOX IMVI; [7]): 0.501 nM | IC (TGI) (LOX IMVI; [8]): 4.57 nM | GI50 (LOX IMVI; [9]): 0.501 nM | GI50 (XF 498; XF498, CNS cancer, read-out: Log10 GI50 (converted)): 0.427 nM | IC (TGI) (XF 498; XF498, CNS cancer, read-out: Log10 TGI (converted)): 4.47 nM | GI50 (XF 498; XF498, XF 498, CNS cancer, read-out: averaged negative log10 GI50 (converted)): 0.427 nM | GI50 (M19-MEL; [7]): 0.331 nM | IC (TGI) (M19-MEL; [8]): 5.01 nM | GI50 (SNB-19; [7]): 2.09 nM | IC (TGI) (SNB-19; [8]): 10 nM | GI50 (SNB-19; [9]): 2.09 nM | GI50 (MOLT-4; [7]): 0.407 nM | IC (TGI) (MOLT-4; [8]): 10 nM | GI50 (MOLT-4; [9]): 0.407 nM | GI50 (UACC-257; [7]): 2.29 nM | IC (TGI) (UACC-257; [8]): 10 nM | GI50 (UACC-257; [9]): 2.29 nM | GI50 (SK-MEL-2; [7]): 0.309 nM | IC (TGI) (SK-MEL-2; [8]): 4.57 nM | GI50 (SK-MEL-2; [9]): 0.309 nM | cure rate [4]: 18% | life extension of those not cured [4]: 220% | survival rate [4]: 100% | GI50 (NCI-H322M; [7]): 3.02 nM | IC (TGI) (NCI-H322M; read-out: Log10 TGI): 10 nM | GI50 (NCI-H322M; [9]): 3.02 nM | inhibition of nucleotide exchange on tubulin (in words) (tubulin [5]): inhibit nucleotide exchange on tubulin | inhibition of radiolabeled GTP binding to tubulin (in words) (tubulin [5]): inhibited the binding of radiolabeled vinblastine and GTP to tubulin | inhibition of radiolabeled GTP binding to tubulin (tubulin [5]; 5 μM): 17% | inhibition of radiolabeled GTP binding to tubulin (tubulin [5]; 10 μM): 51% | inhibition of nucleotide exchange, comparison (in words) (tubulin [5]; 5 and 10 μM, comparator not given): superior as an inhibitor of nucleotide exchange | inhibition of tubulin polymerization (in words) (tubulin [6]): inhibited tubulin polymerization | IC50 (tubulin [6]; purified tubulin): 4900 ± 500 nM
